From ChEMBL document CHEMBL4732222, “Discovery of novel Hsp90 C-terminal domain inhibitors that disrupt co-chaperone binding” (Bioorg Med Chem Lett, 2021) come the findings set out here.

Each structure is given as a SMILES string.

Assay [1] deals with T1, Heat shock protein HSP90 (Homo sapiens, UniProt P07900+P08238). Description: Binding affinity to recombinant human N-terminal GST-tagged HSP90-CTD assessed as induction of fluorescence quenching at 1 mM by fluorescence spectroscopic analysis relative to control. The class given is protein assay.
A further assay is filed under the species Homo sapiens. Description: Inhibition of recombinant biotin-labelled HSP90/GST-labelled PPID interaction (unknown origin) at 500 uM by Alphascreen assay relative to control.
Assay [2] in a line: Inhibition of recombinant biotin-labelled HSP90/GST-labelled PPID interaction (unknown origin) by Alphascreen assay. Further details: species or system Homo sapiens.
Assay [3] has as its target T1, Heat shock protein HSP90. The assay can be described thus: Binding affinity to recombinant human N-terminal GST-tagged HSP90-CTD by fluorescence spectroscopic analysis. The class given is protein assay.
The nature of assay [4]: Binding affinity to GST (unknown origin) by fluorescence spectroscopic analysis. The format is ADME, Homo sapiens.

`CC(C)CCn1c(NCCO)nc2c1c(=O)[nH]c(=O)n2C`: the Activity at Heat shock protein HSP90 [1] is over 30%. On the same count and under the same terms, for `CCOC(=O)c1cnc2ccc(OC)cc2c1Nc1ccccc1C(=O)O` the value was over 30%. Regarding `Cc1cc2oc(=O)cc(C)c2cc1NC(=O)CCCCl`, the inhibition in the assay filed under Homo sapiens is over 60%. The same measure, in the same setting: for `COc1ccc2[nH]c3c(c2c1)CCNC3c1cccc(O)c1` (centres undefined) the value was over 60%.

Regarding `Cc1nc(CC(=O)c2ccc(O)c(O)c2O)cs1`, in assay [2], the IC50 turned out to be 35 µM. For the same compound, the inhibition in the assay filed under Homo sapiens is over 60%. In addition, the Activity on Heat shock protein HSP90 [1] was over 30%. Also, the Kd on Heat shock protein HSP90 [3] amounted to 102 µM; in assay [4] it was 310 µM. Regarding `CCCCC(NC/C(=C(/C)O)c1cc2c(c(=O)o1)CCCC2)C(=O)O` (centres undefined), the inhibition in the assay listed under Homo sapiens is over 60%. Take `NC(Cc1c[nH]c2ccc(OCc3ccccc3)cc12)C(=O)O` (centres undefined): the IC50 in assay [2] turned out to be 220 µM. For the same compound, in the assay listed under Homo sapiens, the inhibition was over 60%. For the same compound, the Activity on Heat shock protein HSP90 [1] was over 30%. Also, the Kd was determined as 28 µM on Heat shock protein HSP90 [3] and 83 µM in assay [4]. As to `COc1ccc(C(=O)Nc2ccccc2C(=O)NCCC(=O)O)cc1`, on Heat shock protein HSP90 [1], the Activity is over 30%. Turning to `Cc1cc(O)c2c(=O)c(-c3csc(C)n3)coc2c1`, the inhibition in the assay filed under Homo sapiens is over 60%.

Regarding `O=C(O)C1Cc2c([nH]c3ccccc23)C(c2c(O)ccc3ccccc23)N1` (centres undefined), the inhibition in the assay filed under Homo sapiens was over 60%. Regarding `COc1ccc(C(=O)Nc2ccccc2C(=O)N[C@H](C(=O)O)C(C)C)cc1`, the Activity at Heat shock protein HSP90 [1] was over 30%.
